# Test results as given in ChEMBL document CHEMBL1138299, “Synthesis and antitumor activity of amine analogs of irofulven” (Bioorg Med Chem Lett, 2007).
# Assay: Antitumor activity in MV522 cells assessed as inhibition of DNA synthesis after 2 hrs
# Format: functional, cell-based
# Conditions: Homo sapiens, MV522, 2 h
row,SMILES,IC50
1,CC1=C(CO)C2=C(C)C3(CC3)[C@@](C)(O)C(=O)C2=C1 [IROFULVEN],110 nM
2,CC1=C(C=O)C2=C(C)C3(CC3)[C@@](C)(O)C(=O)C2=C1,4900 nM
